In this assay the target is T1, human mAChR M4 (Homo sapiens, UniProt P08173).
T1 sequence (P08173 1-479): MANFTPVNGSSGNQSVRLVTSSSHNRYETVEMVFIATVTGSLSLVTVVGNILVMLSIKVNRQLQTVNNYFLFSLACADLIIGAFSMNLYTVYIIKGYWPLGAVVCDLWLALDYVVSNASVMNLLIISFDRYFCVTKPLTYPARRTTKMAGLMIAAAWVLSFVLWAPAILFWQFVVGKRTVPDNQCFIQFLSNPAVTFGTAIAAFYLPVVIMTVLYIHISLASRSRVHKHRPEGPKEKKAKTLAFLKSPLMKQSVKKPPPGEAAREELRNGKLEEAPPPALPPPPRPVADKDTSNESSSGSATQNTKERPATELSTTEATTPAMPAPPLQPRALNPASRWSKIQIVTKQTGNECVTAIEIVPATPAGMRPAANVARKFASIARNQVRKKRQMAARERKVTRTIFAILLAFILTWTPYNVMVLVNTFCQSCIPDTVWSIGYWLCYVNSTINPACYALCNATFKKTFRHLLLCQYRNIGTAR
The assay can be described thus: mAChR M4 cell-based functional assay (calcium flux), human M4. The following applies: for Emax: % ACh maximum at 30 μM. (Calcium flux is commonly read through the fluorescence of an indicator in the cells.)

The mark [1] stands for this setting: Human M4 EC50 (nM), Table 11, calcium flux, PAM activity with EC20 acetylcholine.

Structures are written as SMILES. Where a name gives a salt, the structure may show the parent alone. Read-outs that look alike come from different tables or passages of the source.

The EC50 is the concentration needed to bring the measured effect to its halfway point. In general, Emax refers to the maximal effect, on the per cent scale that the assay sets. Take `Cc1nnc2sc3c(N4CCC(COc5ccnc(Cl)c5)C4)ncnc3c2c1C` (centres unmarked) [Compound 347, 8-[3-[(2-chloro-4-pyridyl)oxymethyl]pyrrolidin-1-yl]-3,4-dimethyl-pyrimido[4′,5′:4,5] thieno[2,3-c]pyridazine dihydrochloride]: under setting [1], the concentration giving a half-maximal response (EC50) was determined as 362 nM. The Emax (Table 11) was 48.5%. Taken in the same sequence, the figures for `Cc1nnc2sc3c(N4CC(COc5ccnc(Cl)c5)C4)ncnc3c2c1C` [Compound 348, 8-[3-[(2-choro-4-pyridyl)oxymethyl]azetidin-1-yl]-3,4-dimethyl-pyrimido [4′,5′:4,5]thieno[2,3-c] pyridazine dihydrochloride] were 1710 nM and 65.7%. Take `Cc1nnc2sc3c(N4CC(Oc5ccnc(Cl)c5)C4)ncnc3c2c1C` [Compound 349, 8-[3-[(2-chloro-4-pyridyl)oxy]azetidin-1-yl]-3,4-dimethyl-pyrimido[4′,5′:4,5] thieno[2,3-c]pyridazine dihydrochloride]: the concentration giving a half-maximal response (EC50) under setting [1] stood at 210 nM. For the same molecule, the Emax (Table 11) was determined as 81.2%. As for `Cc1nnc2sc3c(N4CC(Oc5cnccn5)C4)ncnc3c2c1C` [Compound 350, 3,4-dimethyl-8-(3-pyrazin-2-yloxyazetidin-1-yl) pyrimido[4′,5′:4,5]thieno [2,3-c]pyridazine dihydrochloride], the EC50 under setting [1] came out at 404 nM. The Emax (Table 11) turned out to be 78.1%. As to `Cc1cc(C)c(OC2CN(c3ncnc4c3sc3nnc(C)c(C)c34)C2)cn1` [Compound 351, 8-[3-[(4,6-dimethyl-3-pyridyl)oxy]azetidin-1-yl]-3,4-dimethyl-pyrimido[4′,5′:4,5]thieno [2,3-c]pyridazine dihydrochloride], under setting [1], the EC50 amounted to 444 nM. Also, the Emax (Table 11) stood at 62.1%. On to `[2H]C([2H])([2H])C(O)(c1ccc(CNc2ncnc3c2sc2nnc(C)c(C)c23)cc1)C([2H])([2H])[2H]` [Compound 352, 1,1,1,3,3,3-hexadeuterio-2-[4-[[(3,4-dimethylpyrimido [4′,5′:4,5]thieno[2,3-c]pyridazin-8-yl)amino]methyl]phenyl]propan-2-ol], for which the maximal response (Emax) (Table 11) worked out at 103%. Take `Cc1nnc2sc3c(N4CC[C@@H](C(C)(C)O)C4)ncnc3c2c1C` [Compound 353, 2-[(3R)-1-(3,4-dimethylpyrimido [4′,5′:4,5]thieno[2,3-c]pyridazin-8-yl)pyrrolidin-3-yl]propan-2-ol]: under setting [1], the EC50 is 321 nM. In addition, the Emax (Table 11) is 48.8%.

For `Cc1nnc2sc3c(N4CC[C@H](C(C)(C)O)C4)ncnc3c2c1C` [Compound 354, 2-[(3S)-1-(3,4-dimethylpyrimido[4′,5′:4,5]thieno[2,3-c]pyridazin-8-yl)pyrrolidin-3-yl]propan-2-ol], under setting [1], the EC50 is 362 nM. In addition, the Emax (Table 11) is 53%. The like results for `Cc1nnc2sc3c(N4CC(Oc5ccc(C#N)nc5)C4)ncnc3c2c1C` [Compound 355, 5-[1-(3,4-dimethylpyrimido[4′,5′:4,5]thieno[2,3-c]pyridazin-8-yl)azetidin-3-yl]oxypyridine-2-carbonitrile dihydrochloride] were, in that order, 1310 nM and 49.2%.

In the case of `Cc1nnc2sc3c(N4CC(Oc5cccnc5)C4)ncnc3c2c1C` [Compound 356, 3,4-dimethyl-8-[3-(3-pyridyloxy)azetidin-1-yl]pyrimido[4′,5′:4,5]thieno [2,3-c]pyridazine dihydrochloride], the EC50 under setting [1] was found to be 1170 nM. Moreover, the Emax (Table 11) is 32.8%.

For `Cc1nnc2sc3c(N4CC(Oc5cnn(C)c5)C4)ncnc3c2c1C` [Compound 357, 3,4-dimethyl-8-[3-(1-methylpyrazol-4-yl)oxyazetidin-1-yl]pyrimido [4′,5′:4,5]thieno[2,3-c] pyridazine dihydrochloride], the EC50 under setting [1] is 1400 nM. For the same molecule, the Emax (Table 11) turned out to be 41.3%. The like results for `Cc1cc(O[C@H]2CN(c3ncnc4c3sc3nnc(C)c(C)c34)C[C@@H]2C)ccn1` [Compound 358, 3,4-dimethyl-8-[(3S,4R)-3-methyl-4-[(2-methyl-4-pyridyl)oxy]pyrrolidin-1-yl]pyrimido[4′,5′:4,5] thieno[2,3-c] pyridazine dihydrochloride] were, in that order, 276 nM and 76%. The like results for `Cc1nnc2sc3c(N4CC[C@H](Oc5ccccn5)C4)ncnc3c2c1C` [Compound 359, 3,4-dimethyl-8-[(3S)-3-(2-pyridyloxy)pyrrolidin-1-yl]pyrimido[4′,5′:4,5]thieno[2,3-c]pyridazine dihydrochloride] were, in that order, 488 nM and 31.8%. Take `Cc1nnc2sc3c(N4CC[C@H](Oc5ccc(C(F)(F)F)cn5)C4)ncnc3c2c1C` [Compound 360, 3,4-dimethyl-8-[(3S)-3-[[5-(trifluoromethyl)-2-pyridyl]oxy]pyrrolidin-1-yl] pyrimido[4′,5′:4,5]thieno [2,3-c]pyridazine dihydrochloride]: the half-maximal effective concentration (EC50) under setting [1] came out at 333 nM. Besides, under “Table 11”, the Emax amounted to 56%.

Consider `Cc1nnc2sc3c(N4CC[C@H](Oc5cnccn5)C4)ncnc3c2c1C` [Compound 361, 3,4-dimethyl-8-[(3S)-3-pyrazin-2-yloxypyrrolidin-1-yl]pyrimido[4′,5′:4,5] thieno[2,3-c]pyridazine dihydrochloride], for which, under setting [1], the EC50 stood at 1470 nM. Besides, the Emax (Table 11) was determined as 53.9%. Taken in the same sequence, the figures for `Cc1nnc2sc3c(N4CC[C@H](Oc5ccc(C(F)(F)F)nc5)C4)ncnc3c2c1C` [Compound 362, 3,4-dimethyl-8-[(3S)-3-[[6-(trifluoromethyl)-3-pyridyl]oxy]pyrrolidin-1-yl] pyrimido[4′,5′:4,5]thieno [2,3-c]pyridazine dihydrochloride] were 519 nM and 75.7%.

Consider `Cc1nnc2sc3c(N4CC[C@H](Oc5ccc(C#N)cc5)C4)ncnc3c2c1C` [Compound 363, 4-[(3S)-1-(3,4-dimethylpyrimido[4′,5′:4,5]thieno[2,3-c]pyridazin-8-yl)pyrrolidin-3-yl] oxybenzonitrile dihydrochloride], for which the EC50 under setting [1] was determined as 298 nM. The maximum response (Emax) (Table 11) came to 64.8%. Taken in the same sequence, the figures for `Cc1ccc(O[C@H]2CCN(c3ncnc4c3sc3nnc(C)c(C)c34)C2)cn1` [Compound 364, 3,4-dimethyl-8-[(3S)-3-[(6-methyl-3-pyridyl)oxy]pyrrolidin-1-yl]pyrimido [4′,5′:4,5]thieno[2,3-c] pyridazine dihydrochloride] were 423 nM and 50.7%. On to `Cc1cc(O[C@H]2C[C@@H](C)N(c3ncnc4c3sc3nnc(C)c(C)c34)C2)ccn1` [Compound 365, 3,4-dimethyl-8-[(2R,4S)-2-methyl-4-[(2-methyl-4-pyridyl)oxy]pyrrolidin-1-yl]pyrimido [4′,5′:4,5]thieno[2,3-c] pyridazine dihydrochloride], for which the EC50 under setting [1] is 551 nM. The Emax (Table 11) amounted to 65.2%. For `Cc1nnc2sc3c(N4CCC(Oc5ccncc5)(C(F)(F)F)C4)ncnc3c2c1C` (centres unmarked) [Compound 366, 3,4-dimethyl-8-[3-(4-pyridyloxy)-3-(trifluoromethyl)pyrrolidin-1-yl]pyrimido[4′,5′:4,5]thieno[2,3-c]pyridazine dihydrochloride], the EC50 under setting [1] amounted to 1360 nM. Besides, the maximum response (Emax) (Table 11) worked out at 77.7%.

Regarding `COC(C)(C)c1ccc(CNc2ncnc3c2sc2nnc(C)c(C)c23)cc1` [Compound 367, N-[[4-(1-methoxy-1-methyl-ethyl)phenyl]methyl]-3,4-dimethyl-pyrimido[4′,5′:4,5] thieno[2,3-c]pyridazin-8-amine], the Emax (Table 11) is 100%.

Take `Cc1nnc2sc3c(NCc4ccc(C(C)(C)CO)cc4F)ncnc3c2c1C` [Compound 368, 2-[4-[[(3,4-dimethylpyrimido[4′,5′:4,5]thieno[2,3-c]pyridazin-8-yl)amino]methyl]-3-fluoro-phenyl]-2-methyl-propan-1-ol]: the EC50 under setting [1] was 766 nM. The Emax (Table 11) turned out to be 98%.

Take `[2H]C([2H])(Nc1ncnc2c1sc1nnc(C)c(C)c12)c1ccc(C(C)(C)O)cc1` [Compound 369, 2-[4-[dideuterio-[(3,4-dimethylpyrimido[4′,5′:4,5]thieno[2,3-c]pyridazin-8-yl)amino]methyl]phenyl] propan-2-ol]: the Emax (Table 11) amounted to 100%.

For `[2H]C([2H])([2H])OC(C)(C)c1ccc(CNc2ncnc3c2sc2nnc(C)c(C)c23)cc1` [Compound 370, 3,4-dimethyl-N-[[4-[1-methyl-1-(trideuteriomethoxy)ethyl]phenyl]methyl] pyrimido[4′,5′:4,5]thieno [2,3-c]pyridazin-8-amine], the EC50 under setting [1] came to 326 nM. The Emax (Table 11) is 93.1%. `Cc1nnc2sc3c(NCc4ccc(C(C)(C)N)cc4)ncnc3c2c1C` [Compound 371, N-[[4-(1-amino-1-methyl-ethyl)phenyl]methyl]-3,4-dimethyl-pyrimido[4′,5′:4,5] thieno[2,3-c]pyridazin-8-amine]: the half-maximal effective concentration (EC50) under setting [1] was 41.6 nM. In addition, the Emax (Table 11) was found to be 93.6%.

Consider `Cc1nnc2sc3c(NCc4ccc5c(c4)COC5(C)C)ncnc3c2c1C` [Compound 372, N-[(1,1-dimethyl-3H-isobenzofuran-5-yl)methyl]-3,4-dimethyl-pyrimido[4′,5′:4,5]thieno [2,3-c]pyridazin-8-amine], for which the Emax (Table 11) was found to be 94.7%.

As for `Cc1nnc2sc3c(NCc4ccc(C(C)(O)CO)cc4)ncnc3c2c1C` (centres unmarked) [Compound 373, 2-[4-[[(3,4-dimethylpyrimido[4′,5′:4,5]thieno[2,3-c]pyridazin-8-yl)amino]methyl]phenyl] propane-1,2-diol], the EC50 amounted to 69.2 nM. The Emax (Table 11) is 98%.

These data come from patent US10239887B2, “Positive allosteric modulators of the muscarinic acetylcholine receptor M4” (Vanderbilt University, priority 2016, dated 2019).
